# “And” between values parts separate entries of the source, which are not always exact repeats. Identical values can stand only once. Inconclusive results are not listed.
# System: BDF1 mice, colon carcinoma 38 sc, T/C %
# Assay: NCI In Vivo Anticancer Drug Screen. Data for tumor model Colon Carcinoma 38 (subcutaneous) in B6D2F1 (BDF1) mice
# Conditions: endpoint: median tumor weight (est.), higher = larger tumour
# Description: The antitumor activity of compounds was measured in mice bearing transplantable tumors. Survival or tumor size were measured and the results are expressed as the measurement made in the treated group (T) divided by the measurement made in the vehicle treated control group (C). The tumor model used in this assay is Colon Carcinoma 38 (subcutaneous) in B6D2F1 (BDF1) mice
# [1] = dose: 50.0 mg/kg/injection, schedule: Q07DX003 (ip), vehicle: saline
# [2] = dose: 25.0 mg/kg/injection, schedule: Q07DX002 (ip), vehicle: Klucel (hydroxypropylcellulose) (HPC)
# [3] = dose: 50.0 mg/kg/injection, schedule: Q07DX002 (ip), vehicle: Klucel (hydroxypropylcellulose) (HPC)
# [4] = dose: 12.5 mg/kg/injection, schedule: Q07DX002 (ip), vehicle: saline with Tween-80
# [5] = dose: 12.5 mg/kg/injection, schedule: Q07DX002 (ip), vehicle: suspension in saline
# [6] = dose: 50.0 mg/kg/injection, schedule: Q07DX002 (ip), vehicle: saline with Tween-80
# [7] = dose: 50.0 mg/kg/injection, schedule: Q07DX002 (ip), vehicle: suspension in saline
# [8] = dose: 100.0 mg/kg/injection, schedule: Q07DX002 (ip), vehicle: saline with Tween-80
# [9] = dose: 100.0 mg/kg/injection, schedule: Q07DX002 (ip), vehicle: suspension in saline
# [10] = dose: 25.0 mg/kg/injection, schedule: Q07DX002 (ip), vehicle: saline
# [11] = dose: 50.0 mg/kg/injection, schedule: Q07DX002 (ip), vehicle: saline
smiles,measurement,setting,value
CNNCc1ccc(C(=O)NC(C)C)cc1,T/C,[1],110 % of control
same,T/C,"dose: 100.0 mg/kg/injection, schedule: Q07DX003 (ip), vehicle: saline",123 % of control
same,T/C,"dose: 200.0 mg/kg/injection, schedule: Q07DX003 (ip), vehicle: saline",99 % of control
same,T/C,"dose: 400.0 mg/kg/injection, schedule: Q07DX003 (ip), vehicle: saline",35 % of control
C[C@@]12C(=O)OC(=O)[C@]1(C)[C@H]1CC[C@@H]2O1,T/C,"dose: 0.12 mg/kg/injection, schedule: Q07DX002 (ip), vehicle: Klucel (hydroxypropylcellulose) (HPC)",88 % of control
same,T/C,"dose: 0.25 mg/kg/injection, schedule: Q07DX002 (ip), vehicle: Klucel (hydroxypropylcellulose) (HPC)",65 % of control
same,T/C,"dose: 0.5 mg/kg/injection, schedule: Q07DX002 (ip), vehicle: Klucel (hydroxypropylcellulose) (HPC)",69 % of control
same,T/C,"dose: 1.0 mg/kg/injection, schedule: Q07DX002 (ip), vehicle: Klucel (hydroxypropylcellulose) (HPC)",76 % of control
same,T/C,"dose: 2.0 mg/kg/injection, schedule: Q07DX002 (ip), vehicle: Klucel (hydroxypropylcellulose) (HPC)",86 % of control
CCc1c(CC(=O)O)c2cc(C)ccc2n1Cc1ccc(Cl)cc1,T/C,"dose: 3.13 mg/kg/injection, schedule: Q07DX002 (ip), vehicle: Klucel (hydroxypropylcellulose) (HPC)",107 % of control
same,T/C,"dose: 6.25 mg/kg/injection, schedule: Q07DX002 (ip), vehicle: Klucel (hydroxypropylcellulose) (HPC)",45 % of control
same,T/C,"dose: 6.25 mg/kg/injection, schedule: Q07DX003 (ip), vehicle: Klucel (hydroxypropylcellulose) (HPC)",72 % of control
same,T/C,"dose: 12.5 mg/kg/injection, schedule: Q07DX002 (ip), vehicle: Klucel (hydroxypropylcellulose) (HPC)",76 % of control
same,T/C,"dose: 12.5 mg/kg/injection, schedule: Q07DX003 (ip), vehicle: Klucel (hydroxypropylcellulose) (HPC)",74 % of control
same,T/C,[2],60 % of control
same,T/C,"dose: 25.0 mg/kg/injection, schedule: Q07DX003 (ip), vehicle: Klucel (hydroxypropylcellulose) (HPC)",97 % of control
same,T/C,[3],98 % of control
same,T/C,"dose: 50.0 mg/kg/injection, schedule: Q07DX003 (ip), vehicle: Klucel (hydroxypropylcellulose) (HPC)",116 % of control
same,T/C,"dose: 100.0 mg/kg/injection, schedule: Q07DX002 (ip), vehicle: Klucel (hydroxypropylcellulose) (HPC)",159 % of control
same,T/C,"dose: 100.0 mg/kg/injection, schedule: Q07DX003 (ip), vehicle: Klucel (hydroxypropylcellulose) (HPC)",120 % of control
same,T/C,"dose: 200.0 mg/kg/injection, schedule: Q07DX003 (ip), vehicle: Klucel (hydroxypropylcellulose) (HPC)",48 % of control
NC(=O)c1csc(C2OC(CO)C(O)C2O)n1 (stereo unspecified),T/C,"dose: 50.0 mg/kg/injection, schedule: Q07DX002 (ip), vehicle: water",154 % of control
same,T/C,"dose: 100.0 mg/kg/injection, schedule: Q07DX002 (ip), vehicle: water",121 % of control and 106 % of control
same,T/C,"dose: 200.0 mg/kg/injection, schedule: Q07DX002 (ip), vehicle: water",111 % of control and 92 % of control
same,T/C,"dose: 400.0 mg/kg/injection, schedule: Q07DX002 (ip), vehicle: water",124 % of control and 104 % of control
same,T/C,"dose: 800.0 mg/kg/injection, schedule: Q07DX002 (ip), vehicle: water",72 % of control
O=c1n(CC2CO2)c(=O)n(CC2CO2)c(=O)n1CC1CO1 (stereo unspecified),T/C,"dose: 12.0 mg/kg/injection, schedule: Q07DX002 (ip), vehicle: saline with Tween-80",121 % of control
same,T/C,[4],170 % of control
same,T/C,[5],101 % of control and 88 % of control and 89 % of control
same,T/C,"dose: 25.0 mg/kg/injection, schedule: Q07DX003 (ip), vehicle: saline",43 % of control
same,T/C,[6],119 % of control and 102 % of control
same,T/C,[7],66 % of control and 42 % of control and 62 % of control
same,T/C,[1],36 % of control
same,T/C,[8],42 % of control and 65 % of control
same,T/C,[9],81 % of control
same,T/C,"dose: 200.0 mg/kg/injection, schedule: Q07DX002 (ip), vehicle: suspension in saline",81 % of control
CC(Cc1ccc(O)c(O)c1)C(C)Cc1ccc(O)c(O)c1 (stereo unspecified),T/C,[10],100 % of control
same,T/C,[11],83 % of control
same,T/C,"dose: 100.0 mg/kg/injection, schedule: Q07DX002 (ip), vehicle: saline",94 % of control
same,T/C,"dose: 800.0 mg/kg/injection, schedule: Q07DX002 (ip), vehicle: saline",90 % of control
CSc1ncnc2c1ncn2C1OC(CO)C(O)C1O (stereo unspecified),T/C,"dose: 6.25 mg/kg/injection, schedule: Q07DX002 (ip), vehicle: saline + alcohol",91 % of control
same,T/C,"dose: 12.5 mg/kg/injection, schedule: Q07DX002 (ip), vehicle: saline + alcohol",83 % of control
same,T/C,"dose: 25.0 mg/kg/injection, schedule: Q07DX002 (ip), vehicle: saline + alcohol",150 % of control
same,T/C,"dose: 100.0 mg/kg/injection, schedule: Q07DX002 (ip), vehicle: saline + alcohol",25 % of control
CN(C)c1ccc(C(=C2C=CC(=[N+](C)C)C=C2)c2ccc(N(C)C)cc2)cc1 (tested in a mixture with another compound),T/C,"dose: 0.62 mg/kg/injection, schedule: Q07DX002 (ip), vehicle: saline with Tween-80",61 % of control
same,T/C,"dose: 2.5 mg/kg/injection, schedule: Q07DX002 (ip), vehicle: saline with Tween-80",71 % of control
C[n+]1c(/C=N/NC(N)=S)ccc2ccccc21,T/C,[4],115 % of control
same,T/C,"dose: 25.0 mg/kg/injection, schedule: Q07DX002 (ip), vehicle: saline with Tween-80",83 % of control
same,T/C,[6],77 % of control
same,T/C,[8],87 % of control
same,T/C,"dose: 200.0 mg/kg/injection, schedule: Q07DX002 (ip), vehicle: saline with Tween-80",108 % of control
same,T/C,"dose: 400.0 mg/kg/injection, schedule: Q07DX002 (ip), vehicle: saline with Tween-80",118 % of control
O=NN(CCCl)C(=O)Oc1cc(Cl)c(Cl)cc1Cl,T/C,[2],117 % of control
same,T/C,[3],63 % of control
CN(N=O)C(N)=O,T/C,"dose: 3.12 mg/kg/injection, schedule: Q07DX002 (ip), vehicle: saline",95 % of control
same,T/C,"dose: 6.0 mg/kg/injection, schedule: Q07DX002 (ip), vehicle: saline",93 % of control
same,T/C,"dose: 6.25 mg/kg/injection, schedule: Q07DX002 (ip), vehicle: saline",99 % of control
same,T/C,"dose: 6.25 mg/kg/injection, schedule: Q07DX002 (ip), vehicle: suspension in saline",108 % of control
same,T/C,"dose: 12.0 mg/kg/injection, schedule: Q07DX002 (ip), vehicle: saline",112 % of control
same,T/C,"dose: 12.5 mg/kg/injection, schedule: Q07DX002 (ip), vehicle: saline",78 % of control
same,T/C,[5],76 % of control
same,T/C,[10],43 % of control and 62 % of control
same,T/C,"dose: 25.0 mg/kg/injection, schedule: Q07DX002 (ip), vehicle: suspension in saline",55 % of control
same,T/C,[11],37 % of control
same,T/C,[7],82 % of control
same,T/C,[9],84 % of control
CO[C@@]12[C@H](COC(N)=O)C3=C(C(=O)C(C)=C(N)C3=O)N1C[C@@H]1N[C@@H]12,T/C,"dose: 0.5 mg/kg/injection, schedule: Q07DX002 (ip), vehicle: saline",62 % of control and 70 % of control
same,T/C,"dose: 0.5 mg/kg/injection, schedule: Q07DX002 (ip), vehicle: water",90 % of control
same,T/C,"dose: 1.0 mg/kg/injection, schedule: Q07DX002 (ip), vehicle: clinical formulation",85 % of control
same,T/C,"dose: 1.0 mg/kg/injection, schedule: Q07DX002 (ip), vehicle: saline",58 % of control and 61 % of control
same,T/C,"dose: 1.0 mg/kg/injection, schedule: Q07DX002 (ip), vehicle: water",80 % of control
same,T/C,"dose: 2.0 mg/kg/injection, schedule: Q07DX002 (ip), vehicle: clinical formulation",84 % of control
same,T/C,"dose: 2.0 mg/kg/injection, schedule: Q07DX002 (ip), vehicle: saline",35 % of control and 51 % of control
same,T/C,"dose: 2.0 mg/kg/injection, schedule: Q07DX002 (ip), vehicle: water",30 % of control
same,T/C,"dose: 3.75 mg/kg/injection, schedule: Q07DX002 (oral), vehicle: water",112 % of control
same,T/C,"dose: 4.0 mg/kg/injection, schedule: Q07DX002 (ip), vehicle: clinical formulation",20 % of control
same,T/C,"dose: 4.0 mg/kg/injection, schedule: Q07DX002 (ip), vehicle: saline",8 % of control and 22 % of control
same,T/C,"dose: 4.0 mg/kg/injection, schedule: Q07DX002 (ip), vehicle: water",13 % of control
same,T/C,"dose: 7.5 mg/kg/injection, schedule: Q07DX002 (oral), vehicle: water",93 % of control
same,T/C,"dose: 15.0 mg/kg/injection, schedule: Q07DX002 (oral), vehicle: water",21 % of control
same,T/C,"dose: 30.0 mg/kg/injection, schedule: Q07DX002 (oral), vehicle: water",28 % of control

# From PubChem BioAssay AID212 (DTP/NCI, 2004)
